Mutagenic call data for seven compounds are collected here from PubChem BioAssay AID1259407 (Chemical Carcinogenesis Research Information System (CCRIS), 2018).

Active and inactive are the calls of the source. The rule behind the calls is not given here.

For the series, the system named is CCRIS mutagenicity, Ames/micronucleus/aberration tests. The series can be described thus: CCRIS mutagenicity studies.

In the case of `CC(=O)CN(CC(C)O)N=O` (stereo unspecified), the mutagenic call (Test System: AMES SALMONELLA TYPHIMURIUM, Strain/Indicator: TA100, Metabolic Activation: HAMSTER, LIVER, S-9, 3-METHYLCHOLANTHRENE, Method: PREINCUBATION) is “active; positive”; the mutagenic call (Test System: AMES SALMONELLA TYPHIMURIUM, Strain/Indicator: TA100, Metabolic Activation: HAMSTER, LIVER, S-9, PHENOBARBITAL, Method: PREINCUBATION) was “active; positive”; the mutagenic call (Test System: AMES SALMONELLA TYPHIMURIUM, Strain/Indicator: TA100, Metabolic Activation: HAMSTER, LIVER, S-9, Method: PREINCUBATION) is “active; positive”; the mutagenic call (Test System: AMES SALMONELLA TYPHIMURIUM, Strain/Indicator: TA100, Metabolic Activation: HUMAN, LIVER, S-9, Method: PREINCUBATION) was “active; positive”; the mutagenic call (Test System: AMES SALMONELLA TYPHIMURIUM, Strain/Indicator: TA100, Metabolic Activation: MONKEY, LIVER, S-9, Method: PREINCUBATION) is “active; positive”; the mutagenic call (Test System: AMES SALMONELLA TYPHIMURIUM, Strain/Indicator: TA100, Metabolic Activation: MOUSE, LIVER, S-9, 3-METHYLCHOLANTHRENE, Method: PREINCUBATION) is “active; positive”. Besides, the mutagenic call (Test System: AMES SALMONELLA TYPHIMURIUM, Strain/Indicator: TA100, Metabolic Activation: MOUSE, LIVER, S-9, PHENOBARBITAL, Method: PREINCUBATION) is “active; positive”; the mutagenic call (Test System: AMES SALMONELLA TYPHIMURIUM, Strain/Indicator: TA100, Metabolic Activation: MOUSE, LIVER, S-9, Method: PREINCUBATION) was “active; positive”; the mutagenic call (Test System: AMES SALMONELLA TYPHIMURIUM, Strain/Indicator: TA100, Metabolic Activation: RABBIT, LIVER, S-9, Method: PREINCUBATION) was “active; positive”; the mutagenic call (Test System: AMES SALMONELLA TYPHIMURIUM, Strain/Indicator: TA100, Metabolic Activation: RAT, LIVER, CYTOSOL, PCB, Method: PREINCUBATION) is “active; positive”; the mutagenic call (Test System: AMES SALMONELLA TYPHIMURIUM, Strain/Indicator: TA100, Metabolic Activation: RAT, LIVER, MICROSOMES AND CYTOSOL, PCB, Method: PREINCUBATION) is “active; positive”; the mutagenic call (Test System: AMES SALMONELLA TYPHIMURIUM, Strain/Indicator: TA100, Metabolic Activation: RAT, LIVER, MICROSOMES AND G6PDH, PCB, Method: PREINCUBATION) is “active; positive”. For the same compound, the mutagenic call is “active; positive” (Test System: AMES SALMONELLA TYPHIMURIUM, Strain/Indicator: TA100, Metabolic Activation: RAT, LIVER, MICROSOMES, PCB, Method: PREINCUBATION); “active; positive” (Test System: AMES SALMONELLA TYPHIMURIUM, Strain/Indicator: TA100, Metabolic Activation: RAT, LIVER, S-9 (HEATED), PCB, Method: PREINCUBATION); “active; positive” (Test System: AMES SALMONELLA TYPHIMURIUM, Strain/Indicator: TA100, Metabolic Activation: RAT, LIVER, S-9, 3-METHYLCHOLANTHRENE, Method: PREINCUBATION); “active; positive” (Test System: AMES SALMONELLA TYPHIMURIUM, Strain/Indicator: TA100, Metabolic Activation: RAT, LIVER, S-9, PCB, Method: PREINCUBATION); “active; positive” (Test System: AMES SALMONELLA TYPHIMURIUM, Strain/Indicator: TA100, Metabolic Activation: RAT, LIVER, S-9, PHENOBARBITAL, Method: PREINCUBATION); “active; positive” (Test System: AMES SALMONELLA TYPHIMURIUM, Strain/Indicator: TA100, Metabolic Activation: RAT, LIVER, S-9, Method: PREINCUBATION). For the same compound, the mutagenic call reads like this: (Test System: AMES SALMONELLA TYPHIMURIUM, Strain/Indicator: TA100, Metabolic Activation: RAT, LIVER, S-9 WITHOUT NADP+, PCB, Method: PREINCUBATION) “active; positive”; (Test System: AMES SALMONELLA TYPHIMURIUM, Strain/Indicator: TA100, Method: PREINCUBATION) “active; positive”; (Test System: CHINESE HAMSTER V-79, Strain/Indicator: V-79/OUABAIN, Metabolic Activation: HAMSTER, HEPATOCYTES, Method: CELL-MEDIATED) “active; positive”.
Consider `CC12CCC(CC1)C(C)(C)O2`, for which the mutagenic call was “inactive; negative; precipitation occurred at 663 ug/ml” (End Point: IN VITRO CHROMOSOMAL ABERRATIONS, Test System: CHINESE HAMSTER OVARY CELLS, Metabolic Activation: NONE); “inactive; negative; precipitation occurred at all doses” (End Point: IN VITRO CHROMOSOMAL ABERRATIONS, Test System: CHINESE HAMSTER OVARY CELLS, Metabolic Activation: RAT, LIVER, S-9, AROCLOR 1254); “inactive; negative” (Test System: AMES SALMONELLA TYPHIMURIUM, Strain/Indicator: TA97A, Metabolic Activation: NONE, Method: STANDARD PLATE); “inactive; negative” (Test System: AMES SALMONELLA TYPHIMURIUM, Strain/Indicator: TA97A, Metabolic Activation: RAT LIVER S-9, AROCLOR 1254, Method: STANDARD PLATE); “inactive; negative” (Test System: AMES SALMONELLA TYPHIMURIUM, Strain/Indicator: TA98, Metabolic Activation: NONE, Method: STANDARD PLATE); “inactive; negative” (Test System: AMES SALMONELLA TYPHIMURIUM, Strain/Indicator: TA98, Metabolic Activation: RAT LIVER S-9, AROCLOR 1254, Method: STANDARD PLATE). For the same compound, the mutagenic call (Test System: AMES SALMONELLA TYPHIMURIUM, Strain/Indicator: TA100, Metabolic Activation: NONE, Method: STANDARD PLATE) was “inactive; negative”; the mutagenic call (Test System: AMES SALMONELLA TYPHIMURIUM, Strain/Indicator: TA100, Metabolic Activation: RAT LIVER S-9, AROCLOR 1254, Method: STANDARD PLATE) is “inactive; negative”; the mutagenic call (Test System: AMES SALMONELLA TYPHIMURIUM, Strain/Indicator: TA102, Metabolic Activation: NONE, Method: STANDARD PLATE) is “inactive; negative”; the mutagenic call (Test System: AMES SALMONELLA TYPHIMURIUM, Strain/Indicator: TA102, Metabolic Activation: RAT LIVER S-9, AROCLOR 1254, Method: STANDARD PLATE) was “inactive; negative”; the mutagenic call (Test System: E. coli, Strain/Indicator: WP2 IC185 trpE65, Metabolic Activation: None, Method: Plate incorporation) was “inactive; negative”; the mutagenic call (Test System: E. coli, Strain/Indicator: WP2 IC202 trpE65 oxyR/pKM101, Metabolic Activation: None, Method: Plate incorporation) is “inactive; negative”.
On to `COc1ccc2c(cc3c4c(cc5c(c42)OCO5)CCN3C)c1OC`, for which the mutagenic call is, setting by setting: (Test System: AMES SALMONELLA TYPHIMURIUM, Strain/Indicator: TA98, Metabolic Activation: RAT, LIVER, S-9, PHENOBARBITAL AND BETA-NAPHTHOFLAVONE, Method: PREINCUBATION) “active; positive”; (Test System: AMES SALMONELLA TYPHIMURIUM, Strain/Indicator: TA100, Metabolic Activation: RAT, LIVER, S-9, PHENOBARBITAL AND BETA-NAPHTHOFLAVONE, Method: PREINCUBATION) “active; positive”.
Regarding `Nc1nnc(/C(=C/c2ccc([N+](=O)[O-])o2)c2ccco2)o1`, the mutagenic call (Test System: UDS HUMAN FIBROBLASTS, Strain/Indicator: THY INCORP (NON-S-PHASE), Metabolic Activation: NONE, Method: AUTORADIOGRAPHY) is “active; positive”.
`O=[N+]([O-])c1ccc(-[n+]2nc(-c3ccccc3)nn2-c2ccc(I)cc2)cc1`: the mutagenic call runs as follows: (Test System: AMES SALMONELLA TYPHIMURIUM, Strain/Indicator: TA97, Metabolic Activation: NONE, Method: SPOT TEST) “inactive; negative”; (Test System: AMES SALMONELLA TYPHIMURIUM, Strain/Indicator: TA98, Metabolic Activation: NONE, Method: PREINCUBATION) “inactive; negative”; (Test System: AMES SALMONELLA TYPHIMURIUM, Strain/Indicator: TA98, Metabolic Activation: NONE, Method: SPOT TEST) “inactive; negative”; (Test System: AMES SALMONELLA TYPHIMURIUM, Strain/Indicator: TA100, Metabolic Activation: NONE, Method: PREINCUBATION) “inactive; negative”; (Test System: AMES SALMONELLA TYPHIMURIUM, Strain/Indicator: TA100, Metabolic Activation: NONE, Method: SPOT TEST) “inactive; negative”; (Test System: AMES SALMONELLA TYPHIMURIUM, Strain/Indicator: TA102, Metabolic Activation: NONE, Method: SPOT TEST) “inactive; negative”.
Consider `COc1cc(-c2ccc(N/N=C3\C=Cc4c(S(=O)(=O)O)cc(S(=O)(=O)O)c(N)c4C3=O)c(OC)c2)ccc1N/N=C1/C=Cc2c(S(=O)(=O)O)cc(S(=O)(=O)O)c(N)c2C1=O`, for which the mutagenic call is, setting by setting: (Test System: AMES SALMONELLA TYPHIMURIUM, Strain/Indicator: TA98, Metabolic Activation: HAMSTER, LIVER, S-9, Method: PREINCUBATION (PRIVAL METHOD)) “active; positive”; (Test System: Ames Salmonella typhimurium, Strain/Indicator: TA98, Metabolic Activation: Rat, Liver, S-9, Sodium phenobarbitone, Method: Preincubation) “inactive; negative, test conducted under both aerobic and anaerobic conditions”; (Test System: Ames Salmonella typhimurium, Strain/Indicator: TA1538, Metabolic Activation: Rat, Liver, S-9, Sodium phenobarbitone, Method: Preincubation) “inactive; negative, test conducted under both aerobic and anaerobic conditions”.
Consider `NN(CCO)c1ccn([C@@H]2O[C@H](CO)[C@@H](O)[C@H]2O)c(=O)n1`, for which the mutagenic call (Test System: CHINESE HAMSTER V-79, Strain/Indicator: V-79/6-THIOGUANINE, Metabolic Activation: NONE, Method: REPLATING) is “inactive; negative”.
